Here are results for four molecules from patent US11535585B2, “Nitrobenzyl derivatives of anti-cancer agents” (OBI PHARMA, INC., priority 2015, dated 2022).

The subject of assay [1] is H460 non cell lung cancer human tumor cell line. Nature of the assay: In vitro human tumor cell line cytotoxicity / proliferation assay (AlamarBlue) with and without AKR1C3 inhibitor. It counts as cell-based. The protocol:
In vitro proliferation data on the H460 […] human tumor cell line is determined based on IC50 measured by exposure of compounds at various concentrations for 2 hrs followed by a wash step and addition of fresh media followed by growth and cell viability staining and comparison to a media only treated control.
Specifically, exponentially growing cells are seeded at a density of 4×10^3 cells per well in a 96 well plate and incubated at 37° C. in 5% CO2, 95% air and 100% relative humidity for 24 hours prior to addition of test compounds. Compounds are solubilized in 100% DMSO at 200 times the desired final test concentration. At the time of drug addition, compounds are further diluted to 4 times the desired final concentration with complete medium. Aliquots of 50 μl of compound at specified concentrations are added to microtiter wells already containing 150 μl of medium, resulting in the final drug concentration reported. After drug addition the plates are incubated 72 hrs at 37° C., 5% CO2, 95% air and 100% relative humidity. At the end of this incubation, the viable cells are quantified using the AlamarBlue assay. The drug concentration resulting in growth inhibition of 50% (IC50) is calculated using Prism software (Irvine, Calif.).
Cell proliferation were performed in the presence (3 micromolar) and absence of a specific inhibitor of the AKR 1C3 enzyme. The case of added inhibitor was added to cell culture 2 hours prior to compound treatment. The inhibitor used was compound 36 in Flanagan, et al, Bioorganic and Medicinal Chemistry (2014) p 962-977.
Proliferation data of TH compounds in H460 in the presence/absence of the specific AKR 1C3 inhibitor

The target of assay [2] is T1, AKR1C3 (Homo sapiens, UniProt P42330).
T1 sequence (P42330 1-323): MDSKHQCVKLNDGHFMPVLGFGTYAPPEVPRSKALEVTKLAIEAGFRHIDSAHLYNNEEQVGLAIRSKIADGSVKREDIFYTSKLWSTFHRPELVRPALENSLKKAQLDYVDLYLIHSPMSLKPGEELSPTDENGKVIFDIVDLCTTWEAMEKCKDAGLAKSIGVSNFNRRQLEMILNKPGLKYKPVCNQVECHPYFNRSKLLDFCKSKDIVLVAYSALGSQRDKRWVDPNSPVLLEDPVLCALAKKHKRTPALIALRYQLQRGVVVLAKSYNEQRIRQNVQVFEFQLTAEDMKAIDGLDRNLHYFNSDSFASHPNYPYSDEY
The note with it: cited from earlier work.

The conditions of assay [3]: tested as water soluble phosphate prodrug PR 104P; cited from earlier work.
Where [4] appears, read: NCI-H460, H460 cells, absence of specific AKR 1C3 inhibitor, read-out: IC50 (without inhibitor).
The mark [5] stands for this setting: NCI-H460, H460 cells, presence of 3 micromolar specific AKR 1C3 inhibitor added 2 hours prior to compound treatment, read-out: IC50 (with inhibitor).

Where two headings read alike, the source gives them in different places.

As a reminder, the IC50 is the concentration that gives 50% inhibition. For the molecule `CC(=O)O[C@H]1C(=O)[C@@]2(C)[C@H]([C@H](OC(=O)c3ccccc3)[C@]3(O)C[C@H](OC(=O)[C@H](OC(=O)N(C)CCN(C)C(=O)OCc4ccc([N+](=O)[O-])c(Oc5ccc6ncccc6c5)c4)[C@@H](NC(=O)c4ccccc4)c4ccccc4)C(C)=C1C3(C)C)[C@]1(OC(C)=O)CO[C@@H]1C[C@@H]2O` [TH3047], the figures for the IC50 in assay [1] (setting [4]) and in assay [1] (setting [5]) were 0.03 µM and 30 µM, respectively.
Turning to `CC(=O)O[C@H]1C(=O)[C@@]2(C)[C@H]([C@H](OC(=O)c3ccccc3)[C@]3(O)C[C@H](OC(=O)[C@H](OC(=O)N(C)CCN(C)C(=O)OC(C)c4ccc([N+](=O)[O-])c(Oc5ccc6ncccc6c5)c4)[C@@H](NC(=O)c4ccccc4)c4ccccc4)C(C)=C1C3(C)C)[C@]1(OC(C)=O)CO[C@@H]1C[C@@H]2O` (stereo partly shown) [TH3054], the IC50 in assay [1] (setting [4]) is 0.03 µM; in assay [1] (setting [5]) it was 91 µM.
Turning to `CS(=O)(=O)OCCN(CCBr)c1c(C(=O)NCCO)cc([N+](=O)[O-])cc1[N+](=O)[O-]` [PR 104], the “substrate for AKR1C3” value in assay [2] is recorded as “weak substrate”. In addition, in assay [3], the “efficacy in clinical trials” value is “ineffective”.
On to `CCN(CCCCBr)P(=O)(OCc1ccc([N+](=O)[O-])c(Oc2ccc(-c3ccccc3)cc2)c1)OCC1OC(n2ccc(N)nc2=O)C(F)(F)C1O` (stereo not shown) [TH3057], for which the IC50 in assay [1] (NCI-H460, read-out: IC50 (without inhibitor)) was 0.2 µM.
